The source of these data is ChEMBL document CHEMBL1151437, “Activity of a potent hepatitis C virus polymerase inhibitor in the chimpanzee model” (Antimicrob Agents Chemother, 2007).

Assay [1] deals with Hepatitis C virus. Nature of the assay: Drug resistance, ratio of EC50 for HCV 1a H77 with NS5B polymerase G554D mutation to EC50 for wild type HCV 1a H77 infected in chimpanzee measured on day 16. The format is functional, Hepacivirus hominis, genotype 1a H77.
For assay [2], the system named is Hepatitis C virus. Briefly: Drug resistance, ratio of EC50 for HCV 1b strain N with NS5B polymerase C316Y mutation to EC50 for wild type HCV 1b strain N infected in chimpanzee measured on day 28. In kind it is functional, Hepacivirus hominis, genotype 1b strain N.
Assay [3] concerns Hepatitis C virus. Briefly: Drug resistance, ratio of EC50 for HCV 1a H77 with NS5B polymerase Y448C mutation to EC50 for wild type HCV 1a H77 infected in chimpanzee measured on day 28. In kind it is functional, Hepacivirus hominis, genotype 1a H77.
The test system of assay [4] is Hepatitis C virus. Briefly: Antiviral activity against HCV 1b strain N with NS5B polymerase C316Y mutation infected in chimpanzee measured on day 2. In kind it is functional, organism-based, Hepacivirus hominis. As to conditions: genotype 1b strain N, 48 h.
Assay [5] concerns Hepatitis C virus. Briefly: Drug resistance, ratio of EC50 for HCV 1b strain N with NS5B polymerase C316Y mutation to EC50 for wild type HCV 1b strain N infected in chimpanzee measured on day 5. In kind it is functional, Hepacivirus hominis, genotype 1b strain N.
For assay [6], the system named is Hepatitis C virus. Briefly: Drug resistance, ratio of EC50 for HCV 1b strain N with NS5B polymerase C316Y mutation to EC50 for wild type HCV 1b strain N infected in chimpanzee measured on day 11. In kind it is functional, Hepacivirus hominis, genotype 1b strain N.
The subject of assay [7] is Hepatitis C virus. Briefly: Antiviral activity against HCV 1b strain N with NS5B polymerase C316Y mutation infected in chimpanzee measured on day 11. The format is functional, organism-based, Hepacivirus hominis. As to conditions: genotype 1b strain N, 264 h.
Assay [8] deals with Hepatitis C virus. Briefly: Antiviral activity against HCV 1a H77 with NS5B polymerase G554D mutation infected in chimpanzee measured on day 16. As to conditions: genotype 1a H77, 384 h. In kind it is functional, organism-based, Hepacivirus hominis.
The subject of assay [9] is Hepatitis C virus. Briefly: Antiviral activity against HCV 1b strain N with NS5B polymerase C316Y mutation infected in chimpanzee measured on day 5. As to conditions: genotype 1b strain N, 120 h. The format is functional, organism-based, Hepacivirus hominis.
For assay [10], the system named is Hepatitis C virus. Briefly: Drug resistance, ratio of EC50 for HCV 1a H77 with NS5B polymerase G554D mutation to EC50 for wild type HCV 1a H77 infected in chimpanzee measured on day 2. The format is functional, Hepacivirus hominis, genotype 1a H77.
The test system of assay [11] is Hepatitis C virus. Nature of the assay: Drug resistance, ratio of EC50 for HCV 1b strain N with NS5B polymerase C316Y mutation to EC50 for wild type HCV 1b strain N infected in chimpanzee measured on day 2. In kind it is functional, Hepacivirus hominis, genotype 1b strain N.
Assay [12] deals with Hepatitis C virus. Briefly: Antiviral activity against HCV 1a H77 with NS5B polymerase Y448C mutation infected in chimpanzee measured on day 28. The format is functional, organism-based, Hepacivirus hominis. The conditions noted are these: genotype 1a H77, 672 h.
Assay [13] has as its system Hepatitis C virus. Nature of the assay: Drug resistance, ratio of EC50 for HCV 1a H77 with NS5B polymerase G554D mutation to EC50 for wild type HCV 1a H77 infected in chimpanzee measured on day 5. In kind it is functional, Hepacivirus hominis, genotype 1a H77.
Assay [14] relates to Hepatitis C virus. Briefly: Antiviral activity against HCV 1a H77 with NS5B polymerase G554D mutation infected in chimpanzee measured on day 2. The conditions noted are these: genotype 1a H77, 48 h. The format is functional, organism-based, Hepacivirus hominis.
Assay [15] concerns Hepatitis C virus. Briefly: Antiviral activity against HCV 1a H77 with NS5B polymerase G554D mutation infected in chimpanzee measured on day 5. The format is functional, organism-based, Hepacivirus hominis. As to conditions: genotype 1a H77, 120 h.
In assay [16] the test system is Hepatitis C virus. Briefly: Antiviral activity against HCV 1b strain N with NS5B polymerase C316Y mutation infected in chimpanzee measured on day 28. In kind it is functional, organism-based, Hepacivirus hominis. The conditions noted are these: genotype 1b strain N, 672 h.
Assay [17] has as its system Hepatitis C virus. Nature of the assay: Antiviral activity against wild type HCV 1b strain N infected in chimpanzee. The format is functional, organism-based, Hepacivirus hominis. The conditions noted are these: genotype 1b strain N.

Broadly, the pEC50 is the negative decadic logarithm of the EC50, by convention in mol/L. High values mean a small EC50, low ones a large EC50.

pEC50: −log10 of the molar value.

Consider `COc1ccc2c(O[C@@H]3C[C@H]4C(=O)N[C@]5(C(=O)O)C[C@H]5/C=C\CCCCC[C@H](NC(=O)OC5CCCC5)C(=O)N4C3)cc(-c3csc(NC(C)C)n3)nc2c1` [CILUPREVIR], for which the “fold change (FC)” value in the assay on Hepatitis C virus [1] stood at 0.9; with Hepatitis C virus [2], 1; in the assay on Hepatitis C virus [3], 1.1; in the assay with Hepatitis C virus [5], 1.1; with Hepatitis C virus [6] it was 0.8; in the assay on Hepatitis C virus [10] it was 0.9. Moreover, the “fold change (FC)” value in the assay with Hepatitis C virus [11] and in the assay with Hepatitis C virus [13] was 1 throughout. Besides, the negative logarithm of the EC50 (pEC50) is 8.89 in the assay with Hepatitis C virus [4]; 8.96 with Hepatitis C virus [7]; 8.55 with Hepatitis C virus [8]; 8.89 with Hepatitis C virus [9]; 8.48 in the assay on Hepatitis C virus [12]; 8.57 in the assay with Hepatitis C virus [14]. Further, the negative-log EC50 (pEC50) is 8.51 with Hepatitis C virus [15], 8.89 in the assay on Hepatitis C virus [16] and 8.85 in the assay with Hepatitis C virus [17].
